The subject of one data set is Phaedon cochleariae. Kind of data set: Phaedon cochleariae spray test. It counts as in vivo. Conditions: foliar, 168 h, after 7 days, sprayed Chinese cabbage leaf discs (Brassica pekinensis) with larvae, 100 % = all beetle larvae killed, read-out: Wirkung. The source says:
Lösungsmittel: • 78,0 Gewichtsteile Aceton • 1,5 Gewichtsteile Dimethylformamid Emulgator: Alkylarylpolyglykolether
(§1) Zur Herstellung einer zweckmäßigen Wirkstoffzubereitung löst man 1 Gewichtsteil Wirkstoff mit den angegebenen Gewichtsteilen Lösungsmittel und füllt mit Wasser, welches eine Emulgatorkonzentration von 1000 ppm enthält, bis zum Erreichen der gewünschten Konzentration auf. Zur Herstellung weiterer Testkonzentrationen wird mit emulgatorhaltigem Wasser verdünnt.
Chinakohlblattscheiben (Brassica pekinensis) werden mit einer Wirkstoffzubereitung der gewünschten Konzentration gespritzt und nach dem Abtrocknen mit Larven des Meerrettichblattkäfers (Phaedon cochleariae) besetzt.
Nach 7 Tagen wird die Wirkung in % bestimmt. Dabei bedeutet 100 %, dass alle Käferlarven abgetötet wurden; 0 % bedeutet, dass keine Käferlarven abgetötet wurden.

Another data set relates to Myzus persicae. The data set is described as follows: Myzus persicae spray test. It counts as in vivo. The settings on record: foliar, 120 h, after 5 days, sprayed Chinese cabbage leaf discs (Brassica pekinensis) infested with all stages, 100 % = all aphids killed, read-out: Wirkung.
Description: Lösungsmittel: • 78 Gewichtsteile Aceton • 1,5 Gewichtsteile Dimethylformamid Emulgator: Alkylarylpolyglykolether
as §1
Chinakohlblattscheiben (Brassica pekinensis), die von allen Stadien der Grünen Pfirsichblattlaus (Myzus persicae) befallen sind, werden mit einer Wirkstoffzubereitung der gewünschten Konzentration gespritzt.
Nach 5 Tagen wird die Wirkung in % bestimmt. Dabei bedeutet 100 %, dass alle Blattläuse abgetötet wurden; 0 % bedeutet, dass keine Blattläuse abgetötet wurden.

A short description of data set [1]: logP determination by HPLC on a reversed-phase column (C18), EEC Directive 79/831 Annex V.A8. The settings on record: LC-MS in the acidic range, pH 2,7, 0,1 % aqueous formic acid and acetonitrile, 55°C, read-out: logP (HCOOH). It counts as physicochemical. How it is done:
Die Messung der logP Werte erfolgt gemäß EEC Directive 79/831 Annex V.A8 durch HPLC (High Performance Liquid Chromatography) an einer Phasenumkehrsäule (C 18). Temperatur: 55°C.
Die Bestimmung mit der LC-MS im sauren Bereich erfolgt bei pH 2,7 mit 0,1 % wässriger Ameisensäure und Acetonitril (enthält 0,1% Ameisensäure) als Eluenten; linearer Gradient von 10% Acetonitril bis 95% Acetonitril. In der Tabelle logP (HCOOH) genannt.
Die Eichung erfolgt mit unverzweigten Alkan-2-onen (mit 3 bis 16 Kohlenstoffatomen), deren logP-Werte bekannt sind (Bestimmung der logP-Werte anhand der Retentionszeiten durch lineare Interpolation zwischen zwei aufeinander folgenden Alkanonen).

The structures appear in SMILES notation.

`CCS(=O)(=O)c1c(-c2nc3cc(C(F)(F)F)ncc3n2C)n(C)c2cc(Cl)ccc12` [Bsp. I-1, 2-(6-Chlor-3-ethylsulfonyl-1-methyl-indol-2-yl)-3-methyl-6-(trifluormethyl)imidazo[4,5-c]pyridin]: the mortality at 500 g/ha in the data set with Phaedon cochleariae came to 100%; with Myzus persicae, 90%. Further, the chromatographic logP in data set [1] is 3.11.

For `CCSc1c(-c2nc3cc(C(F)(F)F)ncc3n2C)n(C)c2cc(Cl)ccc12` [Bsp. I-2, 2-(6-Chlor-3-ethylsulfanyl-1-methyl-indol-2-yl)-3-methyl-6-(trifluormethyl)imidazo[4,5-c]pyridin], the chromatographic logP in data set [1] was determined as 4.51.

Consider `Cn1c(-c2c(Cl)c3ccc(Cl)cc3n2C)nc2cc(C(F)(F)F)ncc21` [Bsp. V-1, 2-(3,6-Dichlor-1-methyl-indol-2-yl)-3-methyl-6-(trifluormethyl)imidazo[4,5-c]pyridin], for which, in data set [1], the chromatographic logP was 4.23.

These data come from patent EP3241830A1, “CONDENSED BICYCLIC HETEROCYCLIC DERIVATIVES AS PESTICIDES” (Bayer CropScience Aktiengesellschaft, priority 2016, dated 2017).
